Laboratory results from US20160106711A1, “3-3-Di-Substituted-Oxindoles as Inhibitors of Translation Initiation” (President and Fellows of Harvard College, priority 2012, published 2016).

Assays:
CHOP mRNA [1] = experiment: Real time PCR of CHOP mRNA expression, KLN cells; format: cell-based, mouse; conditions: for fold induction at 20 µM / CHOP PCR (μM) KLN: at 20 uM
Protocol: (§1) In order to validate the compounds described herein as modifiers of the abundance of the eIF2•GTP•Met-tRNAi ternary complex, the effects of the compounds on endogenous cellular markers of the ternary complex were determined. For example, reducing amount of the ternary complex increases translation of ATF-4, which results in elevated expression of CHOP mRNA and protein. Therefore, expression of endogenous CHOP mRNA and CHOP protein in KLN-tTA/pBISA-DL^(ATF-4) cells were utilized as secondary assays to validate the compounds as modifiers of the eIF2•GTP•Met-tRNAi ternary complex.
(§2) Total RNA was extracted with TaqMan Gene Expression Cells-to-Ct™ Kit (Applied Biosystems, Branchburg, N.J.) and DNAse I treated according to manufacturer's recommendations. 1-Step Real-time PCR was performed on a Bio-Rad iCycler IQ5 system by using B-R 1-Step SYBR Green qRT-PCR Kit (Quanta BioSciences, Gaithersburg, Md.) according to manufacturer's specifications. The thermal cycler conditions were as follows: 10 minutes at 50° C., hold for 5 minutes at 95° C., followed by 2-step PCR for 45 cycles of 95° C. for 15 seconds followed by 60° C. for 30 seconds. All PCRs were performed in triplicate in at least two independent PCR runs. Mean values of these repeated measurements were used for calculation. To calibrate the results, all the transcript quantities were normalized to 18S rRNA (18S ribosomal RNA-like mRNA in mouse). The following primers were used in real-time PCR reactions.
The effects of these compounds on the ternary complex assay and the expression of CHOP mRNA was assayed in adherent mouse (KLN) and human solid tumors cells (CRL-2351 and CRL-2813).

CRL-2351 = experiment: Cell growth assay (sulforhodamine B), CRL-2351 cells; format: cell-based, human; conditions: 5 days, SRB
Summary of the method: (§3)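 Cells were exposed for 5 days to 0.54-6 µM compound, then TCA-fixed and stained with sulforhodamine B, read at 490 nm. Growth was expressed as %T/C with time-zero correction. IC50 is the concentration giving 50% growth inhibition.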

[2] = system: eIF2•GTP•Met-tRNAi ternary complex; experiment: Ternary complex assay (ATF-4 assay), dual luciferase firefly/renilla ratio; format: cell-based, mouse; conditions: for maximal fold induction at 40 µM: read-out: ATF-4 Xmax @ 40 μM
Summary of the method: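 Stable KLN cancer cells expressing tTA carry a bidirectional reporter in which firefly luciferase sits behind the ATF-4 5′UTR and renilla luciferase behind a plasmid-derived 5′UTR only. Lysates were read by Dual-Glo luciferase assay, and the output is the firefly/renilla signal ratio.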

CRL-2813 = experiment: Cell growth assay (sulforhodamine B), CRL-2813 cells; format: cell-based, human; conditions: 5 days, SRB
Summary of the method: as §3

KLN = experiment: Cell growth assay (sulforhodamine B), KLN cells; format: cell-based, mouse; conditions: 5 days, SRB
CHOP mRNA [3] = experiment: Real time PCR of CHOP mRNA expression, CRL-2351 cells; format: cell-based, human
Protocol: as §1
as §2, with “Mean values of these repeated measurements were used for calculation.” left out, “The following primers were used in real-time PCR reactions.” left out

[4] = Mus musculus, read-out: ATF-4 Xmax

SMILES	IC50 (CRL-2351; Homo sapiens, 120 h) [µM]	maximal fold induction at 80 µM [2, 4]	IC50 (CRL-2813; Homo sapiens, CRL2813, 120 h) [µM]	IC50 (KLN; Mus musculus, 120 h) [µM]	maximal fold induction at 40 µM ([2]; Mus musculus, at 40 uM)	also measured
COCCOc1ccc(C(C)(C)C)cc1C1(c2cc(C(C)(C)C)ccc2OCCOC)C(=O)Nc2ccccc21 [HY181]	3.9 ± 2	1.58 ± 0.07	0.9 ± 0.1	> 20		fold induction at 80 µM (CHOP mRNA [1]; Mus musculus): 1.1
COc1ccc(C(C)C)cc1C1(c2cc(C(C)C)ccc2OC)C(=O)Nc2ccccc21 [HY061]	3	2.9 ± 1.21	2.8 ± 0.2	11 ± 0.4		fold induction at 40 µM (CHOP mRNA [1]; Mus musculus): 4.23; fold induction at 80 µM (CHOP mRNA [1]; Mus musculus): 12.3
CC(C)(C)c1ccc(O)c(C2(c3cc(C(C)(C)C)ccc3OCCBr)C(=O)N(CCBr)c3ccccc32)c1 (stereo not drawn) [HY183]	2.9 ± 1.2	1.9 ± 0.03	1.1 ± 0.3	> 20		fold induction at 80 µM (CHOP mRNA [1]; Mus musculus): 1.83
CC(C)(C)c1ccc(OCCN2CCCC2)c(C2(c3cc(C(C)(C)C)ccc3OCCN3CCCC3)C(=O)Nc3ccccc32)c1 [HY191]	0.65 ± 0.1		0.8 ± 0.1	3.5 ± 1.2		fold induction at 5 µM (CHOP mRNA [1]; Mus musculus, at 5 uM): 8.5; maximal fold induction at 5 µM ([2]; Mus musculus, cell prints 5 (uM), read-out: ATF-4 Xmax): 13.9 ± 0.97
COCCOc1ccc(C(C)(C)C)cc1C1(c2cc(C(C)(C)C)ccc2O)C(=O)Nc2ccccc21 (stereo not drawn) [HY081]	3.9 ± 2		0.9 ± 0.1	> 20	1.21 ± 0.16	fold induction at 40 µM (CHOP mRNA [1]; Mus musculus): 1.78
CC(C)(C)c1ccc(O)c(C2(c3cc(C(C)(C)C)ccc3OCCN3CCOCC3)C(=O)N(CCN3CCOCC3)c3ccccc32)c1 (stereo not drawn) [HY305]	3.6 ± 0.7	31.9 ± 9.27	2	5	3.61 ± 0.47	fold induction at 40 µM (CHOP mRNA [1]; Mus musculus): 10
O=C1Nc2ccccc2C1(c1cc(Cl)ccc1O)c1cc(Cl)ccc1O [HY033, 3,3-Bis(5-Chloro-2-Hydroxyphenyl)Indolin-2-One]	6.8 ± 0.8		4.2 ± 0.2	15.2 ± 1.6	6.14 ± 0.63	CHOP PCR (μM) 2351 (CHOP mRNA [3]; CRL-2351, 20 uM): 7.8/20 uM; CHOP PCR (μM) 2351 (CHOP mRNA [3]; CRL-2351, 40 uM): 18.5/40 uM
CN1CCN(CCOc2ccc(C(C)(C)C)cc2C2(c3cc(C(C)(C)C)ccc3OCCN3CCN(C)CC3)C(=O)N(CCN3CCNCC3)c3ccccc32)CC1 [HY313]	0.6 ± 0.1		> 20	9.3 ± 3.2		fold induction at 10 µM (CHOP mRNA [1]; Mus musculus, at 10 (uM)): 6.73
CCN(CC)CCOc1ccc(C(C)(C)C)cc1C1(c2cc(C(C)(C)C)ccc2O)C(=O)Nc2ccccc21 (stereo not drawn) [HY096]	0.6 ± 0.1		1.5 ± 0.6	0.8 ± 0.4		fold induction at 20 µM (CHOP mRNA [1]; Mus musculus): 12.4; maximal fold induction at 20 µM [2, 4]: 16.7 ± 3.24
CN(C)CCN1C(=O)C(c2cc(C(C)(C)C)ccc2CCCN2CCCC2)(c2cc(C(C)(C)C)ccc2OCCN2CCCC2)c2ccccc21 (stereo not drawn) [HY198]						CHOP PCR (μM) KLN (CHOP mRNA [1]): 3.76 at; IC50 (CRL-2351): 0.2 ± 0.05 µM; ATF-4 Xmax ([2]; 2.5 uM): 11.82 ± 0.11/2.5 uM; IC50 (CRL-2813): 0.8 ± 0.1 µM; IC50 (KLN): 0.3 ± 0.1 µM
CCN(CCO)CCOc1ccc(C(C)(C)C)cc1C1(c2cc(C(C)(C)C)ccc2OCCN2CCOCC2)C(=O)N(CCN(C)C)c2ccccc21 (stereo not drawn) [HY306]						CHOP PCR (μM) KLN (CHOP mRNA [1]): 8.11 at; IC50 (CRL-2351): 2.3 ± 0.6 µM; ATF-4 Xmax @ 40 μM ([2]; at 40 uM): 19.2 ± 11.2 at 40 uM; IC50 (CRL-2813): 2.7 ± 0.8 µM; IC50 (KLN): 2.3 ± 1.6 µM
CC(C)(C)c1ccc(O)c(C2(c3cc(C(C)(C)C)ccc3O)C(=O)N(CCN3CCOCC3)c3ccccc32)c1 [HY304]	2.2 ± 0.2		1.6 ± 0.2	17.5 ± 1.3	4.31 ± 0.1	fold induction at 40 µM (CHOP mRNA [1]; Mus musculus): 9.1
CC(=O)OCCOc1ccc(C(C)(C)C)cc1C1(c2cc(C(C)(C)C)ccc2O)C(=O)Nc2ccccc21 (stereo not drawn) [HY084]	2.7 ± 0.2	11.4 ± 0.4	1.6 ± 0.4	11.4 ± 0.2	8.59 ± 1.67	
O=C1Nc2c(ccc(F)c2F)C1(c1ccc(O)cc1)c1ccc(O)cc1 [SD132]	> 20	8.8 ± 1.97	3.74 ± 0.28	> 20		
CC(C)(C)c1ccc(O)c(C2(c3cc(C(C)(C)C)ccc3OCCN3CCCC3)C(=O)Nc3ccccc32)c1 (stereo not drawn) [HY091]	1		10.7 ± 0.8	1.4 ± 0.4		maximal fold induction at 10 µM ([2]; Mus musculus, 10 uM, read-out: ATF-4 Xmax): 2.73 ± 0.65; maximal fold induction at 20 µM [2, 4]: 5.3 ± 0.7
CC(C)(C)c1ccc(C2(c3cc(C(C)(C)C)ccc3O)C(=O)Nc3ccccc32)c(OCCO)c1 (stereo not drawn) [HY069]	8.8 ± 0.9		2.9 ± 0.3	> 20	10.7 ± 1	
COc1ccc(C2(c3cc(C(C)(C)C)ccc3OCCN3CCOCC3)C(=O)Nc3ccc(I)cc32)cc1 (stereo not drawn) [Sd204, 3-{5-tert-butyl-2-[2-(morpholin-4-yl)ethoxy]phenyl}-5-iodo-3-(4-methoxyphenyl)indol-2-one]	6.1 ± 1.7		2.6 ± 0.4	12 ± 1.2	4.5 ± 0.93	
O=C1Nc2ccccc2C1(c1cc(C2CCCC2)ccc1O)c1cc(C2CCCC2)ccc1O [HY051, 3,3-Bis(5-Cyclopentyl-2-Hydroxyphenyl)Indolin-2-One]	5.3 ± 2.4		3.1 ± 0.2	> 20		fold induction at 20 µM (CHOP mRNA [1]; Mus musculus): 13.8; maximal fold induction at 20 µM [2, 4]: 5.48 ± 0.3
CC(C)c1ccc(O)c(C2(c3cc(C(C)C)ccc3O)C(=O)Nc3ccccc32)c1 [HY050, 3,3-Bis(2-Hydroxy-5-Isopropylphenyl)Indolin-2-One]	2.6 ± 0.5		2.9 ± 0.3	15.2 ± 2		maximal fold induction at 20 µM [2, 4]: 3.34 ± 0.07
